Data set [1] deals with Staphylococcus aureus (ATCC29213). The experiment in a line: MIC by microbroth dilution, methicillin sensitive S. aureus. It is filed as cell-based. Particulars: read-out: Minimum inhibitory concentration (MIC) Staphylococcus aureus (ATCC29213). How it is done: (§1) Shown below are the biological activities of representative compounds of the invention. The compounds were tested by the microbroth dilution method (National committee for Clinical Laboratory Standards, M07-A8, Volume 29, 2009) to determine the Minimum Inhibitory Concentration (MIC) against Methicillin sensitive and resistant Staphylococcus aureus. The MICs in the presence of 10% BSA was also tested. Further, select compounds were tested for metabolic stability using mouse liver microsomes based on published protocols (Journal of Biological Sciences, 2008, 8, 1110-1114).

In data set [2] the test system is Methicillin resistant Staphylococcus aureus (ATCC 33591). The experiment in a line: MIC by microbroth dilution, methicillin resistant S. aureus. The following applies: ATCC33591, read-out: Minimum inhibitory concentration (MIC) Methicillin resistant Staphylococcus aureus (ATCC 33591). In kind it is cell-based. How it is done:
as §1
(Dilution methods test growth across graded concentrations, often in twofold steps.)

Data set [3] has the same test system. The data set is described as follows: MIC in the presence of BSA. It is filed as cell-based. The following applies: ATCC33591, 10% BSA. How it is done:
as §1

Data set [4] can be described thus: Metabolic stability in mouse liver microsomes. It is filed as in vitro ADME. How it is done:
as §1
In general terms: Microsomes from liver hold many membrane-bound enzymes, among them those of drug oxidation.

Data set [5] deals with Bacillus subtilis (ΔFabI, ΔFabL; Pxylose SaFabI). The experiment in a line: Target specificity: MIC in B. subtilis expressing S. aureus FabI under xylose inducible promoter. It is filed as cell-based. How it is done: To test for target specificity, the MIC was determined in a Bacillus subtilis strain in which the two FabI homologues (FabI and FabL) were deleted and replaced with S. aureus FabI (Sa FabI) under a Xylose inducible promoter. By varying the amount of xylose in the growth medium, the expression of FabI was proportionately modified. Compounds specifically targeting Sa FabI show an increased MIC when higher amounts of FabI are present in the cell (high Xylose concentrations). In contrast, when FabI levels are low, the cell becomes hypersusceptible, reducing the MIC (low Xylose concentrations). […] Shown below are data for target specificity.

The nature of data set [6]: Pharmacokinetic profile in male Swiss albino mice. Particulars: mouse, in vivo; for AUC / Cmax / clearance / half-life: intravenous single dose 5 mg/kg body weight; for bioavailability: po. The procedure:
The following compounds were dosed to male Swiss albino mice to determine the pharmacokinetic profiles.

A further data set deals with MRSA ATCC33591. The data set is described as follows: Systemic infection model in mice. In kind it is in vivo. How it is done: In order to evaluate the in vivo efficacy of the scaffold, we tested representative compounds for activity in the systemic infection model in mice (Antimicrobial Agents and Chemotherapy, 47, 2507-2512, 2003). In this model, a 15× medial lethal dose of the bacteria (MRSA ATCC33591) was administered to mice intraperitoneally. 1 hour later, VT-02-00068 was administered i.v. at doses of 30, 10 and 3 mg/kg body weight. The compound was administered again 4 hours later. A total of 5 doses were administered, i.e. 2 doses on day 0, 2 on day 1 and 1 on day 2. […] The survival was 100, 100 and 65% at 30, 10 and 3 mg/kg body weight respectively.
VT-02-00044 was tested using the same protocol. The compound was dosed at 50 mg/kg body weight for 3 days, 2 doses per day.

Data set [7] is described as follows: Mutation prevention concentration. In kind it is cell-based. How it is done:
The mutation prevention concentration or the concentration above which mutants are unlikely to be selected, was determined based on published protocols (Antimicrobial Agents and Chemotherapy, 45, 433-438, 2001).

For a further data set, the system named is E. coli ATCC 25922. The experiment in a line: MIC against non-S. aureus strains. It is filed as cell-based. The procedure:
(§2) A subset of compounds was tested against non-S. aureus strains to determine the Minimum Inhibitory Concentration (MIC) against non-S. aureus species (National committee for Clinical Laboratory Standards, M07-A8, Volume 29, 2009).

For the next data set, the system named is E. feacalis ATCC 29212. The data set is described as follows: MIC against non-S. aureus strains. It is filed as cell-based. The procedure:
as §2

A further data set has as its system H. influenzae ATCC 49247. The experiment in a line: MIC against non-S. aureus strains. It is filed as cell-based. How it is done: as §2
The subject of the next data set is M. catarrhalis ATCC 8176. The data set is described as follows: MIC against non-S. aureus strains. In kind it is cell-based. The procedure:
as §2

Data set [8] deals with S. epidermidis ATCC 12228. The data set is described as follows: MIC against non-S. aureus strains. In kind it is cell-based. The procedure: as §2
The subject of data set [9] is S. haemolyticus ATCC 29970. The experiment in a line: MIC against non-S. aureus strains. It is filed as cell-based. The procedure:
as §2

In another data set the test system is S. pneumoniae ATCC 6301. The data set is described as follows: MIC against non-S. aureus strains. In kind it is cell-based. How it is done:
as §2

The mark [10] stands for this setting: read-out: MIC in the presence of 0.005% Xylose (low Xylose concentration).
Where [11] appears, read: read-out: MIC in the presence of 0.5% Xylose (high Xylose concentration).

Here are results for 3 compounds from US9115149B2, “Heterocyclic compounds as inhibitors of fatty acid biosysnthesis for bacterial infections” (Vitas Pharma Research Private Limited, priority 2011, dated 2015).

≈ marks a conversion by molar mass, not a printed value. Like-named read-outs stand apart in the source and are kept apart here.

For orientation: AUC means the area under the concentration-time curve, a measure of exposure. One may read the Cmax as the maximum level reached in the sampled fluid or tissue. As usually defined, the clearance is the rate of elimination divided by the concentration. As usually defined, the half-life is the time needed for the level to fall by half in the phase considered. A high value points to slow decline. What is called bioavailability is dose-corrected exposure relative to a reference, in per cent. Low readings indicate poor availability, high ones good availability.

Regarding `CCn1c(=O)[nH]c2ncc(/C=C/C(=O)N(C)Cc3cc4ccccc4n3C)cc21` [VT-02-00044, (E)-3-(1-ethyl-2-oxo-2,3-dihydro-1H-imidazo[4,5-b]pyridin-6-yl)-N-methyl-N-((1-methyl-1H-indol-2-yl)methyl)acrylamide], the MIC in [1] was 500 ng/mL (≈ 1.28 µM); in data set [2], 1000 ng/mL (≈ 2.57 µM); in data set [3] it was 2000 ng/mL; in [5] (setting [10]) it was less than 1.9 ng/mL; in data set [5] (setting [11]) it was 15 ng/mL. Moreover, the “Metabolic stability (mouse liver microsomes) % of compound remaining after 30 minutes” value in [4] amounted to 50%. For the same compound, in data set [6], the AUC stood at 1040 ng·h/mL. The highest level in data set [6] (Cmax) was 949 ng/mL. Also, the clearance in [6] amounted to 75.9 mL/min/kg. The same compound had a half-life in data set [6] of 1.65 h. The bioavailability in data set [6] stood at 29%. In the data set with MRSA ATCC33591 (50 mg/kg body weight for 3 days, 2 doses per day), this compound had a Survival of 100%.
In the case of `Cc1c(CN(C)C(=O)/C=C/c2cnc3c(c2)C(C)(C)C(=O)N3)oc2ccccc12` [VT-02-00068, (E)-3-(3,3-dimethyl-2-oxo-2,3-dihydro-1H-pyrrolo[2,3-b]pyridin-5-yl)-N-methyl-N-((3-methylbenzofuran-2-yl)methyl)acrylamide], the MIC is 15 ng/mL (≈ 0.0385 µM) in [1]; 15 ng/mL (≈ 0.0385 µM) in data set [2]; 500 ng/mL in data set [3]; less than 0.06 ng/mL in [5] (setting [10]); 15 ng/mL in data set [5] (setting [11]). Also, the “Metabolic stability (mouse liver microsomes) % of compound remaining after 30 minutes” value in [4] came to 21%. For the same compound, the Mutation prevention concentration in [7] turned out to be 0.5 ug/ml μg/ml. Moreover, in the data set on E. coli ATCC 25922, the MIC E. coli ATCC 25922 was greater than 16000 ng/mL. Moreover, in the data set on E. feacalis ATCC 29212, the MIC E. feacalis ATCC 29212 is greater than 16000 ng/mL. The compound further gave an MIC H. influenzae ATCC 49247 in the data set on H. influenzae ATCC 49247 greater than 16000 ng/mL. Further, the MIC M. catarrhalis ATCC 8176 against M. catarrhalis ATCC 8176 is greater than 16000 ng/mL. Also, in [8], the MIC S. epidermidis ATCC 12228 worked out at 30 ng/mL (≈ 0.077 µM). The MIC S. haemolyticus ATCC 29970 in data set [9] worked out at 250 ng/mL (≈ 0.642 µM). The MIC S. pneumoniae ATCC 6301 against S. pneumoniae ATCC 6301 was greater than 32000 ng/mL. The compound further showed an AUC in data set [6] of 10300 ng·h/mL. For the same compound, the highest concentration (Cmax) in [6] was 7850 ng/mL. In addition, the clearance in [6] came to 7.83 mL/min/kg. In addition, the half-life in data set [6] is 1.82 h. For the same compound, in data set [6], the bioavailability is 56.1%. Also, the Survival in the data set on MRSA ATCC33591 (3 mg/kg body weight i.v., 5 doses, mortality observed for 7 days) is 65%; in the data set with MRSA ATCC33591 (10 mg/kg body weight i.v., 5 doses, mortality observed for 7 days), 100%; in the data set on MRSA ATCC33591 (30 mg/kg body weight i.v., 5 doses, mortality observed for 7 days), 100%.
For the compound `Cc1c(CN(C)C(=O)/C=C/c2cnc3c(c2)C2(CCC2)C(=O)N3)c2ccccc2n1C` [VT-02-00091, (E)-N-((1,2-dimethyl-1H-indol-3-yl)methyl)-N-methyl-3-(T-oxo-1′,2′-dihydrospiro[cyclobutane-1,3′-pyrrolo[2,3-b]pyridine]-5′-yl)acrylamide], the MIC in data set [1] was found to be 15 ng/mL (≈ 0.0362 µM); in data set [2], 15 ng/mL (≈ 0.0362 µM); in data set [3], 120 ng/mL; in [5] (setting [11]), 0.061 ng/mL. Besides, the “Metabolic stability (mouse liver microsomes) % of compound remaining after 30 minutes” value in data set [4] came to 21%. In data set [7], this compound returned a Mutation prevention concentration of 0.06 µg/mL. Moreover, the MIC E. coli ATCC 25922 in the data set with E. coli ATCC 25922 was greater than 16000 ng/mL. Besides, the MIC E. feacalis ATCC 29212 against E. feacalis ATCC 29212 was greater than 16000 ng/mL. This compound displayed an MIC H. influenzae ATCC 49247 against H. influenzae ATCC 49247 greater than 16000 ng/mL. In the data set on M. catarrhalis ATCC 8176, this compound returned an MIC M. catarrhalis ATCC 8176 greater than 16000 ng/mL. In data set [8], this compound showed an MIC S. epidermidis ATCC 12228 of 15 ng/mL (≈ 0.0362 µM). This compound also yielded an MIC S. haemolyticus ATCC 29970 in data set [9] of 15 ng/mL (≈ 0.0362 µM). Further, the MIC S. pneumoniae ATCC 6301 against S. pneumoniae ATCC 6301 is greater than 32000 ng/mL.
